According to article PMC6271273, “Chemo-Enzymatic Synthesis of Silybin and 2,3-Dehydrosilybin Dimers” (Molecules, 2014):
Marks after values point to notes of the source that are not given here.

Columns and labels:
[1] = Square wave voltammetry (in situ / ex situ) at pyrolytic graphite electrode; assay type: physicochemical; details: SWV, vs. Ag/AgCl/3 M KCl, pH 7.4, n = 3; for Oxidation potential Ep1: ascribed to oxidation of C-20 OH; for Oxidation potential Ep2: oxidation of resorcinol moiety (ring A)
Method: The monomeric flavonolignans and their dimers were analyzed using in situ voltammetry with the working electrode (PGE: pyrolytic graphite electrode) dipped in the supporting electrolyte containing the analytes and/or ex situ voltammetric analysis (adsorptive transfer, AdT technique). For this purpose, the PGE was first dipped into a 5 µL aliquot of the studied sample. After an accumulation period (30 s), the electrode was washed with deionized water and placed in an electrochemical cell containing pure supporting electrolyte. Square-wave voltammetry (SWV) and cyclic voltammetry (CV) were performed at room temperature with a µAutolab III analyzer (EcoChemie, Utrecht, The Netherlands) in a three-electrode setup (Ag/AgCl 3M KCl electrode as a reference and a platinum wire as the auxiliary electrode). SWV parameters: frequency: 200 Hz, from 0 V to +1.5 V, concentration of tested compounds (50 µM), supporting electrolyte: Britton-Robinson buffer, pH 7.4. The flavonolignans analyzed were dissolved in methanol as a stock solution of 1 mg mL^−1 (stored in a fridge in the dark), and diluted with the supporting electrolyte and/or 0.2 M acetate buffer (pH 5) for in situ and/or ex situ voltammetry. Ex situ a.c. voltammetry (out-of-phase) was carried out with a hanging mercury drop electrode (HMDE) according to the previously published paper. In this case, the flavonolignans (50 µM) were adsorbed from 0.2 M acetate buffer (pH 5) for 30 s. For current responses and potentials (Ep), the standard deviations (S.D.) were less than ±3.55% and ±3 mV for all experiments, respectively.

[2] = DPPH radical scavenging assay; assay type: biochemical; details: 33 µM test compound, n = 4, absorbance at 517 nm after 30 min
Method: Antiradical activity was evaluated spectrophotometrically as the ability of the tested substances to reduce the 1,1-diphenyl-2-picrylhydrazyl (DPPH) radical as described previously with minor modifications. Briefly, a solution of the tested substance (10 µL, final concentration 0–540 µM) were mixed with a freshly prepared methanolic DPPH solution (290 µL, final concentration 20 µM) in a microtiter plate well. After 30 min, absorbance at 517 nm was measured, percentages of inhibition were calculated using the negative control and for selected compounds the IC50 values were obtained from the inhibition curves.

[3] = Stability of dimers in buffers, HPLC; assay type: physicochemical; details: PBS and phosphate buffers (0.2 M, pH 7.4), longer than 24 h
Method: The stability of the dimers in PBS buffer and phosphate buffer (0.2 M, pH 7.4) was monitored using an HPLC method. […] The chromatography was carried out in a Shimadzu Prominence UFLC system (Kyoto, Japan) consisting of a DGU-20A mobile phase degasser, two LC-20AD solvent delivery units, SIL-20ACHT cooling autosampler, CTO-10AS column oven and SPD-M20A (PDA, photodiode array detector). A Chromolith Performance RP-18e monolithic column (100 × 3 mm i.d.) and guard column (5 × 4.6 mm i.d., both Merck) were used. The PDA data were acquired in the 200–450 nm range and the 285 signal was extracted. Gradient elution: mobile phase A: 0.1% formic acid, 10% methanol in water (v/v/v); mobile phase B: 0.1% formic acid in methanol (v/v); gradient, 0–1 min, 20% B; 1–8 min, 20%–90% B; 8–9 min, 90% B, 9–10 min, 90%–20% B. The flow rate was 1.2 mL/min at 25 °C.

SMILES | Oxidation potential Ep1 [1] | Oxidation potential Ep2 [1] | DPPH [% of inhibition] [2] | Stability during longer incubation [3]
COc1cc([C@@H]2Oc3cc([C@H]4Oc5cc(O)cc(O)c5C(=O)[C@@H]4O)ccc3O[C@H]2COC(=O)CCCCCCCCCCC(=O)OC[C@@H]2Oc3ccc([C@H]4Oc5cc(O)cc(O)c5C(=O)[C@@H]4O)cc3O[C@H]2c2ccc(O)c(OC)c2)ccc1O [Compound 4, bis(((2S,3S)-3-(4-Hydroxy-3-methoxyphenyl)-6-((2R,3R)-3,5,7-trihydroxy-4-oxochroman-2-yl)-2,3-dihydrobenzo[b][1,4]dioxin-2-yl)methyl) dodecanedioate] | 0.57 V | 0.83 V | 9.0 ± 3.0 ^a % | signs of instability (decomposition)
COc1cc([C@H]2Oc3cc([C@H]4Oc5cc(O)cc(O)c5C(=O)[C@@H]4O)ccc3O[C@@H]2COC(=O)CCCCCCCCCCC(=O)OC[C@@H]2Oc3ccc([C@H]4Oc5cc(O)cc(O)c5C(=O)[C@@H]4O)cc3O[C@H]2c2ccc(O)c(OC)c2)ccc1O [Compound 5, 1-(((2R,3R)-3-(4-Hydroxy-3-methoxyphenyl)-6-((2R,3R)-3,5,7-trihydroxy-4-oxochroman-2-yl)-2,3-dihydrobenzo[b][1,4]dioxin-2-yl)methyl) 12-(((2S,3S)-3-(4-hydroxy-3-methoxyphenyl)-6-((2R,3R)-3,5,7-trihydroxy-4-oxochroman-2-yl)-2,3-dihydrobenzo[b][1,4]dioxin-2-yl)methyl) dodecanedioate] | 0.55 V | 0.83 V | 7.0 ± 2.9 ^a % | signs of instability (decomposition)
